Reference: article PMC9911596 (Nature Communications, 2023)

Biological target: T1, Vtc1/Vtc3/Vtc4 complex (VTC complex) (Saccharomyces cerevisiae, UniProt P47075+Q02725, P47075:Y22F/P47075:K26A/P47075:K133A)
T1 construct: full-length subunits co-expressed in Expi293F; Vtc1 C-terminal HA, Vtc3 N-terminal 3xFlag, Vtc4 C-terminal 2xStrep; detergent-purified; 3:1:1 pentamer; with Vacuolar transporter chaperone complex subunit 1
T1 sequence (P47075 1-721 Y22F/K26A/K133A): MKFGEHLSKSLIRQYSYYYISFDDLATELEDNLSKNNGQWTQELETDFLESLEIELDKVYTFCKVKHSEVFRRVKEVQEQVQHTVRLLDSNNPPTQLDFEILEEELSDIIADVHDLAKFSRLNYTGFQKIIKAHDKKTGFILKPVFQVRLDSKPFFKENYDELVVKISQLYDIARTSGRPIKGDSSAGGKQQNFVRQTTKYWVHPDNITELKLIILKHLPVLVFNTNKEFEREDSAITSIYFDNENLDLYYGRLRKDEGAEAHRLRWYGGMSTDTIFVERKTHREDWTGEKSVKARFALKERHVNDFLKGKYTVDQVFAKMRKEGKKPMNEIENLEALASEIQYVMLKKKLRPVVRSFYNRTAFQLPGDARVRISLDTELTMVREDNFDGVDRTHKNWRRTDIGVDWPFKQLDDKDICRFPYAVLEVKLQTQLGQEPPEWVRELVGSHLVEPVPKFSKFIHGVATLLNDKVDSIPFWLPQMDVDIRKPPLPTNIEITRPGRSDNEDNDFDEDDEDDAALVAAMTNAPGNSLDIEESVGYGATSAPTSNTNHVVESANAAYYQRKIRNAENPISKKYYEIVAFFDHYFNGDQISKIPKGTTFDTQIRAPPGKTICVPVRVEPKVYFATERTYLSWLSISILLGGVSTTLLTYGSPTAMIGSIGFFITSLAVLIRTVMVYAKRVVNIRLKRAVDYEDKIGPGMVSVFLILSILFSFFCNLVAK
T1 sequence (Q02725 1-835): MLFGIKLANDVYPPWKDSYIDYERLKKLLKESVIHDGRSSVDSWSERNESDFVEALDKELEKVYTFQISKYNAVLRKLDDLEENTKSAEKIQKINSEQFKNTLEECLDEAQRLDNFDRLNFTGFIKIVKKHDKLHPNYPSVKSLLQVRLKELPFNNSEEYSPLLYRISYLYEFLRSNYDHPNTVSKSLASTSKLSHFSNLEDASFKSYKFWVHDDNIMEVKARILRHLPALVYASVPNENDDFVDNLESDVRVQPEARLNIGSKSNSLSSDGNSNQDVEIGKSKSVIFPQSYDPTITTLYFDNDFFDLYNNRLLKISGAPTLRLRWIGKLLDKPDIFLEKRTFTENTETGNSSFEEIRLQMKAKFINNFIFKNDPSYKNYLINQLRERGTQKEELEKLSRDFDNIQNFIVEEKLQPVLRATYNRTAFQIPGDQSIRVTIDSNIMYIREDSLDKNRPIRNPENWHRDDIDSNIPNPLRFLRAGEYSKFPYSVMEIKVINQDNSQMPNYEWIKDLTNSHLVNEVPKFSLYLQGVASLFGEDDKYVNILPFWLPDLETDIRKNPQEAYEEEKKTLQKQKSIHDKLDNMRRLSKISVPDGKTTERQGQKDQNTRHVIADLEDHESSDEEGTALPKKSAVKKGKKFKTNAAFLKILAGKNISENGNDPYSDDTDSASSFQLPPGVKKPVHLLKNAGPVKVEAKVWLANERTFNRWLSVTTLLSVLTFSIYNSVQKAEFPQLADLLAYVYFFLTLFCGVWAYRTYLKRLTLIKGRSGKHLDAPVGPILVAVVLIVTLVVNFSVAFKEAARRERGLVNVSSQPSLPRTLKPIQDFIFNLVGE
T1 sequence (P40046 2-129 partner): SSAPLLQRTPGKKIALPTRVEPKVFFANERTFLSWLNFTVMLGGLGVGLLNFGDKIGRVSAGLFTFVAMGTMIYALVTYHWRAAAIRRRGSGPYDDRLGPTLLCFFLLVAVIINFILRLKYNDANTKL
Assay: polyP synthesis, TBE-PAGE
Format: biochemical
Conditions: activator; 15 mM ATP, 10 mM MgCl2, 1 mM MnCl2, 0.5 mM pyrophosphate, 27 °C, 4 h; SPX PBC mutant

## O=P(O)(O)O[C@H]1[C@H](OP(=O)(O)O)[C@@H](OP(=O)(O)O)[C@H](OP(=O)(O)O)[C@@H](OP(=O)(O)O)[C@H]1OP(=O)(O)O [InsP6]
  polyP synthesis, TBE-PAGE: both reduced InsP6-stimulated polyP synthesis
